Laboratory results as given in patent publication US20260256792A1, “TREATMENT OF CHRONIC SPONTANEOUS URTICARIA BY ADMINISTERING (R)-2-[3-[4-AMINO-3-(2-FLUORO-4-PHENOXY-PHENYL)PYRAZOLO[3,4-D]PYRIMIDIN-1-YL]PIPERIDINE-1-CARBONYL]-4-METHYL-4-[4-(OXETAN-3-YL)PIPERAZIN-1-YL]PENT-2-ENENITRILE” (priority 2023, published 2026).

Tested on: moderate-to-severe chronic spontaneous urticaria (CSU)
Experiment: Phase 2 CSU study: hives severity score over 7 days (HSS7)
Assay type: in vivo, human
Parameters: key to HSS7 Change from baseline, Median / HSS7, Median / HSS7, Max / HSS7 Change from baseline, Q1 / HSS7 Change from baseline, Q3 / HSS7 Change from baseline, Max: 7-day sum of daily hive scores, each 0 = none to 3 = >50 hives
Excerpt: The study comprises a 12 week, randomized, double-blind, placebo-controlled, multi-center, dose-ranging efficacy and safety phase, followed by a 40 week open label extension (OLE) phase (see FIG. 1).
The study consists of three phases and an optional OLE phase.
The UAS is a validated PRO measure. The daily UAS is the sum of the daily Hive Severity Score (HSS, ranging from 0=None to 3=more than 50 hives) and the daily Itch Severity Score (ISS, ranging from 0=None to 3=intense), the 2 key urticaria signs and symptoms which are wheals and itch. The daily UAS scores range from 0 to 6 point/day. Daily UAS scores are summed over 7-day period to create the UAS7, ranging from 0 to 42, and are composed of the HSS7 and ISS7 components. […] Patients were to complete the UAS using the e-diary. The e-diary was to be used once daily on the same time of each day recording of participant's answers to the urticaria activity score over 7 days (UAS7) questionnaire. For participants who entered the OLE phase, their answers to the UAS7 questionnaire were also to be collected from Week 20 to Week24 and from Week 48 to Week 52.
The following secondary endpoints were to be analyzed using the same approach as for the primary endpoint: • Change from baseline in UAS7 at Week 4 • Change from baseline in UAS7 at Week 12 (for US and US reference countries) • Change from baseline in ISS7 at Week 12 (except US and US reference countries) • Change from baseline in HSS7 at Week 12

[1] = Week 7, 400 mg BID, Omalizumab-Naïve Population
[2] = Week 7, 400 mg BID, Patients with Prior Omalizumab Use
[3] = Week 7, 400 mg QPM, Omalizumab-Naïve Population
[4] = Week 7, 400 mg QPM, Patients with Prior Omalizumab Use
[5] = Week 7, 400 mg TID, Omalizumab-Naïve Population
[6] = Week 7, 400 mg TID, Patients with Prior Omalizumab Use
[7] = Week 8, 400 mg BID, Omalizumab-Naïve Population
[8] = Week 8, 400 mg BID, Patients with Prior Omalizumab Use
[9] = Week 8, 400 mg QPM, Omalizumab-Naïve Population
[10] = Week 8, 400 mg QPM, Patients with Prior Omalizumab Use
[11] = Week 8, 400 mg TID, Omalizumab-Naïve Population
[12] = Week 8, 400 mg TID, Patients with Prior Omalizumab Use
[13] = Week 9, 400 mg BID, Omalizumab-Naïve Population
[14] = Week 9, 400 mg BID, Patients with Prior Omalizumab Use
[15] = Week 9, 400 mg QPM, Omalizumab-Naïve Population
[16] = Week 9, 400 mg QPM, Patients with Prior Omalizumab Use
[17] = Week 9, 400 mg TID, Omalizumab-Naïve Population
[18] = Week 9, 400 mg TID, Patients with Prior Omalizumab Use

In the case of CC(C)(C=C(C#N)C(=O)N1CCC[C@@H](n2nc(-c3ccc(Oc4ccccc4)cc3F)c3c(N)ncnc32)C1)N1CCN(C2COC2)CC1 [rilzabrutinib, (R)-2-[3-[4-amino-3-(2-fluoro-4-phenoxy-phenyl)pyrazolo[3,4-d]pyrimidin-1-yl]piperidine-1-carbonyl]-4-methyl-4-[4-(oxetan-3-yl)piperazin-1-yl]pent-2-enenitrile], the “HSS7, Mean (SD)” value [1] is reported as 7.34 (6.12), the “HSS7, Median” value [1] is reported as 7.00 and the “HSS7 Change from baseline, Mean (SD)” value [1] is reported as −6.75 (5.85). For the same compound, the “HSS7 Change from baseline, Median” value [1] was −7.00, the “HSS7 Percent change from baseline, Mean (SD)” value (shortened to “HSS7 Percent change … (SD)”) [1] was −48.07 (38.31) % and the “HSS7 Percent change from baseline, Median” value (“HSS7 Percent change … Median” below) [1] was −50.00%. For the same compound, the “HSS7, Mean (SD)” value [2] was 4.80 (7.46), the “HSS7, Median” value [2] was 0.00 and the “HSS7 Change from baseline, Mean (SD)” value [2] was −10.00 (9.67). The “HSS7 Change from baseline, Median” value [2] was −12.00, the “HSS7 Percent change … Median” value [2] was −100.00% and the “HSS7, Mean (SD)” value [3] was 10.43 (5.27). The “HSS7, Median” value [3] was 8.40, the “HSS7 Change from baseline, Mean (SD)” value [3] was −4.82 (5.35) and the “HSS7 Change from baseline, Median” value [3] was −4.00. For the same compound, the “HSS7 Percent change … (SD)” value [3] was −29.76 (31.10) %, the “HSS7 Percent change … Median” value [3] was −35.71% and the “HSS7, Mean (SD)” value [4] was 9.00 (NC). For the same compound, the “HSS7, Median” value [4] was 9.00, the “HSS7 Change from baseline, Mean (SD)” value [4] was −11.00 (NC) and the “HSS7 Change from baseline, Median” value [4] was −11.00. For the same compound, the “HSS7 Percent change … (SD)” value [4] was −55.00 (NC) %, the “HSS7 Percent change … Median” value [4] was −55.00% and the “HSS7, Mean (SD)” value [5] was 6.40 (4.54). For the same compound, the “HSS7, Median” value [5] was 5.92, the “HSS7 Change from baseline, Mean (SD)” value [5] was −7.60 (5.60) and the “HSS7 Change from baseline, Median” value [5] was −6.58. The “HSS7 Percent change … (SD)” value [5] was −52.36 (32.23) %, the “HSS7 Percent change … Median” value [5] was −50.69% and the “HSS7, Mean (SD)” value [6] was 5.11 (4.08). The “HSS7, Median” value [6] was 4.33, the “HSS7 Change from baseline, Mean (SD)” value [6] was −10.92 (7.20) and the “HSS7 Change from baseline, Median” value [6] was −9.50. For the same compound, the “HSS7 Percent change … (SD)” value [6] was −63.38 (24.01) %, the “HSS7 Percent change … Median” value [6] was −54.41% and the “HSS7, Mean (SD)” value [7] was 6.66 (6.70). For the same compound, the “HSS7, Median” value [7] was 5.00, the “HSS7 Change from baseline, Mean (SD)” value [7] was −7.49 (6.10) and the “HSS7 Change from baseline, Median” value [7] was −7.00. The “HSS7 Percent change … (SD)” value [7] was −54.71 (40.69) %, the “HSS7 Percent change … Median” value [7] was −74.07% and the “HSS7, Mean (SD)” value [8] was 4.80 (7.46). The “HSS7, Median” value [8] was 0.00, the “HSS7 Change from baseline, Mean (SD)” value [8] was −10.00 (9.67) and the “HSS7 Change from baseline, Median” value [8] was −12.00. For the same compound, the “HSS7 Percent change … Median” value [8] was −100.00%, the “HSS7, Median” value [9] was 9.00 and the “HSS7 Change from baseline, Mean (SD)” value [9] was −4.56 (5.35). The “HSS7 Change from baseline, Median” value [9] was −4.00, the “HSS7 Percent change … (SD)” value [9] was −29.79 (35.34) % and the “HSS7 Percent change … Median” value [9] was −28.57%. The “HSS7, Mean (SD)” value [10] was 9.00 (NC), the “HSS7, Median” value [10] was 9.00 and the “HSS7 Change from baseline, Mean (SD)” value [10] was −11.00 (NC). For the same compound, the “HSS7 Change from baseline, Median” value [10] was −11.00, the “HSS7 Percent change … (SD)” value [10] was −55.00 (NC) % and the “HSS7 Percent change … Median” value [10] was −55.00%. The “HSS7, Mean (SD)” value [11] was 6.12 (4.80), the “HSS7, Median” value [11] was 6.00 and the “HSS7 Change from baseline, Mean (SD)” value [11] was −7.88 (5.18). The “HSS7 Change from baseline, Median” value [11] was −7.50, the “HSS7 Percent change … (SD)” value [11] was −56.04 (32.39) % and the “HSS7 Percent change … Median” value [11] was −56.35%. For the same compound, the “HSS7, Mean (SD)” value [12] was 3.17 (4.45), the “HSS7, Median” value [12] was 1.50 and the “HSS7 Change from baseline, Mean (SD)” value [12] was −12.86 (6.28). For the same compound, the “HSS7 Percent change … (SD)” value [12] was −80.91 (20.45) %, the “HSS7 Percent change … Median” value [12] was −86.73% and the “HSS7, Mean (SD)” value [13] was 7.01 (7.58). The “HSS7, Median” value [13] was 3.50, the “HSS7 Change from baseline, Mean (SD)” value [13] was −6.95 (6.00) and the “HSS7 Change from baseline, Median” value [13] was 7.00. For the same compound, the “HSS7 Percent change … (SD)” value [13] was −53.79 (43.28) %, the “HSS7 Percent change … Median” value [13] was −68.18% and the “HSS7, Mean (SD)” value [14] was 4.80 (7.46). For the same compound, the “HSS7, Median” value [14] was 0.00, the “HSS7 Change from baseline, Mean (SD)” value [14] was −10.00 (9.67) and the “HSS7 Change from baseline, Median” value [14] was −12.00. For the same compound, the “HSS7 Percent change … Median” value [14] was −100.00%, the “HSS7, Mean (SD)” value [15] was 9.82 (5.59) and the “HSS7, Median” value [15] was 9.20. For the same compound, the “HSS7 Change from baseline, Mean (SD)” value [15] was −5.33 (5.35), the “HSS7 Change from baseline, Median” value [15] was 4.92 and the “HSS7 Percent change … (SD)” value [15] was −34.46 (32.68) %. The “HSS7 Percent change … Median” value [15] was −33.59%, the “HSS7, Mean (SD)” value [16] was 8.00 (NC) and the “HSS7, Median” value [16] was 8.00. For the same compound, the “HSS7 Change from baseline, Mean (SD)” value [16] was −12.00 (NC), the “HSS7 Change from baseline, Median” value [16] was −12.00 and the “HSS7 Percent change … (SD)” value [16] was −60.00 (NC) %. For the same compound, the “HSS7 Percent change … Median” value [16] was −60.00%, the “HSS7, Mean (SD)” value [17] was 5.88 (4.98) and the “HSS7, Median” value [17] was 6.00. For the same compound, the “HSS7 Change from baseline, Mean (SD)” value [17] was −8.19 (5.87), the “HSS7 Change from baseline, Median” value [17] was −8.00 and the “HSS7 Percent change … (SD)” value [17] was −55.85 (38.63) %. For the same compound, the “HSS7 Percent change … Median” value [17] was −57.14%, the “HSS7, Mean (SD)” value [18] was 3.25 (4.37) and the “HSS7, Median” value [18] was 2.00. For the same compound, the “HSS7 Change from baseline, Mean (SD)” value [18] was −12.78 (6.34), the “HSS7 Change from baseline, Median” value [18] was −12.00 and the “HSS7 Percent change … (SD)” value [18] was −80.12 (19.92) %. The “HSS7 Percent change … Median” value [18] was −86.97% and the “HSS7, Mean (SD)” value (Week 10, 400 mg BID, Omalizumab-Naïve Population) was 7.05 (7.27).
